Data: ChEMBL document CHEMBL1201862, “PubChem BioAssay data set” (2004)
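Growth conditions: 96-well plates. Treatment: test compound, 48 hours, 5 concentrations. Analysis: linear interpolation between bracketing concentrations; unreached endpoints set to highest concentration. GI50 = concentration required for 50% inhibition of growth.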 Active and inactive are the calls of the source. Rule as the data show it: active = GI50 up to about 1.1 µM and inactive = higher.

Key:
Assay in all cases: NCI tumour cell line growth inhibition, 48 h
[1] = tested on: NCI/ADR-RES
[2] = tested on: HCC 2998
[3] = tested on: DU-145
[4] = tested on: RPMI-8226
[5] = tested on: MCF7
[6] = tested on: A498
[7] = tested on: PC-3
[8] = tested on: Hs-578T
[9] = tested on: HOP-62
[10] = tested on: MDA-MB-231
[11] = tested on: MDA-N
[12] = tested on: IGROV-1
[13] = tested on: SR
[14] = tested on: SNB-75
[15] = tested on: M14
[16] = tested on: T47D
[17] = tested on: MDA-MB-435
[18] = tested on: DMS-273
[19] = tested on: CAKI-1
[20] = tested on: HOP-92

Measured: GI50

O=C(O)C1(Cc2ccccc2)Cc2ccccc2C1
inactive: [1] > 100 µM | [2] > 100 µM | [3] > 100 µM | [4] > 100 µM | [5] > 100 µM | [6] > 100 µM | [7] > 100 µM | [8] 94.4 µM | [9] > 100 µM | [10] > 100 µM | [11] > 100 µM | [12] > 100 µM | [13] > 100 µM | [14] 10.6 µM | [15] > 100 µM | [16] > 100 µM | [17] > 100 µM

CC12CCC3=C(CSC4=C3CSc3ccccc34)C1=CCCC2=O (stereo not drawn)
inactive: [18] 82.8 µM | [2] 47.4 µM | [4] 61.2 µM | [9] 20.4 µM | [19] 35.1 µM | [13] 65.8 µM | [15] 27.8 µM

CCCO/N=[N+](\[O-])N(CC)CC
inactive: [18] > 100 µM | [2] > 100 µM | [6] > 100 µM | [9] > 100 µM | [20] > 100 µM | [12] > 100 µM | [13] > 100 µM | [15] > 100 µM

Cc1c(/N=C/C=C/c2ccccc2)c(=O)n(-c2ccccc2)n1C
inactive: [1] 25.9 µM | [3] 33.9 µM | [4] 14.3 µM | [5] 21.9 µM | [6] 14.7 µM | [7] 33 µM | [8] 23.1 µM | [9] 33.3 µM | [10] 34.8 µM | [11] 18.5 µM | [19] 34.7 µM | [20] 30.3 µM | [12] 33.7 µM | [15] 16.3 µM | [16] 23 µM | [17] 34.4 µM

CN(C)CCCNC(=O)c1cccc2ccccc12
inactive: [18] > 100 µM | [14] > 100 µM

C[N+](C)(CCCCCC[N+](C)(C)CCCN1C(=O)c2cccc3cccc(c23)C1=O)CCCN1C(=O)c2cccc3cccc(c23)C1=O
inactive: [1] > 100 µM | [3] > 100 µM | [4] > 100 µM | [5] > 100 µM | [6] > 100 µM | [7] > 100 µM | [8] > 100 µM | [10] 56.2 µM | [11] > 100 µM | [19] 78 µM | [20] > 100 µM | [12] > 100 µM | [13] > 100 µM | [16] > 100 µM | [17] > 100 µM

C[C@H]1SC(c2ccc(Cl)cc2Cl)N(NC(=O)c2ccncc2)C1=O (stereo partly drawn)
inactive: [1] 36.9 µM | [3] 38.1 µM | [4] 35.6 µM | [5] 8.59 µM | [6] 12.4 µM | [7] 15.1 µM | [8] 64.7 µM | [9] 33.7 µM | [10] 33.9 µM | [11] 23 µM | [19] > 100 µM | [20] 45.7 µM | [12] 41.2 µM | [13] 55.8 µM | [14] 45.7 µM | [15] 21.8 µM | [16] 37.1 µM | [17] 23.9 µM
